In the test the test system is UMSCC22A cells. The test can be described thus: Cell death after PDT by propidium iodide fluorometry. The format is cell-based. Conditions: after irradiation; after 5 h of PDT. As to the method:
After exposure to red light, cells were incubated for various periods of time prior to analysis.
Cell death was assessed by propidium iodide (PI) fluorometry using a multi-well fluorescence plate reader, as previously described. Human head and neck cancer cells (UMSCC22A) were plated on 96-well plates (15,000 cells/well) in Dulbecco's Modified Eagle's Medium (DMEM) (Gibco) supplemented with 10% fetal bovine serum (FBS) and penicillin/streptomycin (complete culture medium) in a humidified 37° C. incubator at 5% CO2/95% air. […] Before exposure to light, cells were changed to fresh medium supplemented with PI (30 μM) and Insulin-Transferrin-Selenium-X (ITX) reagent [insulin (10 μg/ml), transferrin (5.5 μg/m), selenium (6.7 ng/ml), ethanolamine (0.2 mg/ml)] (Gibco) but omitting FBS. PI fluorescence was measured at frequent intervals using 530 nm excitation (25 nm band pass) and 620 nm emission (40 nm band pass) filters. Between measurements, microtiter plates were placed in a 37° C. incubator. At the end of the experiment, digitonin (200 μM) was added to each well to permeabilize all cells and label all nuclei with PI. Cell viability determined by PI fluorometry is essentially the same as cell viability determined by trypan blue exclusion.

In the case of Silicon phthalocyanine [Pc 4], the cell killing came to 35%.

Source of the values: patent publication US9283281B2, “Preparation of triple responsive nanogel system and its application” (University of South Carolina, priority 2013, dated 2016).
